Key:
[1] = test system: WJ-MSCs; conditions: FIG. 1
Method: Specifically, the umbilical cord was cut into 3-4 cm lengths, the tissue was finely chopped and treated with collagenase solution (Gibco, USA) for 60 to 90 minutes to degrade the extracellular matrix, and 0.25% trypsin (Gibco, USA) was added to further induce digestion for 30 minutes at 37° C. Then, fetal bovine serum (FBS; Biowest, USA) was added and cells were obtained by centrifugation at 1,000 g for 10 minutes, and then were cultured in a 5% CO2 environment at 37° C. using MEM Alpha (Minimum Essential Medium, Invitrogen-Gibco, Rockville, MD) medium containing 10% FBS (fetal bovine serum, Invitrogen-Gibco) and 50 μg/mL gentamicin (Invitrogen-Gibco) to obtain human umbilical cord-derived mesenchymal stem cells (WJ-MSCs), which were then used in the experiment. […] The WJ-MSCs were seeded at 1×10^4 cells in a 96-well plate and cultured for 24 hours.

[2] = test system: WJ-MSCs; conditions: glutathione at 100 μM (tested 0, 10, 50, 100 μM) after H2O2 0-100 μM; FIG. 2
Method: In order to determine the optimal concentration of glutathione in the cryopreservation formulation, the WJ-MSCs were treated with hydrogen peroxide (H2O2) at concentrations of 0 μM, 10 μM, 50 μM, and 100 μM, to induce stress caused by reactive oxygen species, and then further treated with glutathione at concentrations of 0 μM, 10 μM, 50 μM, and 100 μM, and cell recovery was evaluated using a CCK-8 assay.

With `N[C@@H](CCC(=O)N[C@@H](CS)C(=O)NCC(=O)O)C(=O)O` [glutathione] the cell viability ([1]; 1×10^4 cells in 96-well plate, cultured 24 hours, compared with acetadote, fursultiamine hydrochloride, vitamin C) was “highest”, the cell proliferation ([1]; CCK-8 assay) was “further increased” and the “cell viability (cell recovery)” value [2] was “highest”.

Source: patent US20260242748A1, “FORMULATION FOR CELL CRYOPRESERVATION” (ENCELL CO., LTD, priority 2023, published 2026)
